In the CheMixHub viscosity set:
Several values for one entry are separate records, joined by “and”; a condition that tells them apart may be missing. Equal values may be shown once. ± gives the uncertainty stated by the source.

Columns and labels:
[1] = xn = mol fraction of the nth substance listed

CCCCOCC(C)O (stereo not given)
viscosity (298.15 K, 101.33 kPa): 2.855 ± 0.042 mPa·s
viscosity (308.15 K, 101.33 kPa): 2.142 ± 0.032 mPa·s
viscosity (318.15 K, 101.33 kPa): 1.655 ± 0.025 mPa·s

CC[n+]1ccn(C)c1.O=C([O-])C(F)(F)F
viscosity (293.15 K, 101 kPa): 39.5 ± 0.9 mPa·s
viscosity (298.15 K, 101 kPa): 32.9 ± 0.7 mPa·s
viscosity (303.15 K, 101 kPa): 27.5 ± 0.6 mPa·s
viscosity (313.15 K, 101 kPa): 19.9 ± 0.5 mPa·s

CCCCCCCC(=O)OCC
viscosity (293.15 K, 100 kPa): 1.549 ± 0.048 mPa·s
viscosity (303.15 K, 100 kPa): 1.295 ± 0.04 mPa·s
viscosity (313.15 K, 100 kPa): 1.095 ± 0.034 mPa·s
viscosity (323.15 K, 100 kPa): 0.949 ± 0.03 mPa·s

CN(C)N
viscosity (293.15 K, 101.3 kPa): 0.55 ± 0.02 mPa·s

OCCNCCO
viscosity (293.15 K, 101 kPa): 841.5 ± 57 mPa·s and 742 ± 44 mPa·s
viscosity (298.15 K, 101.33 kPa): 566.3 ± 46 mPa·s
viscosity (303.15 K, 101 kPa): 365.7 ± 23 mPa·s and 379.3 ± 14 mPa·s
viscosity (308.15 K, 101 kPa): 263.1 ± 8.5 mPa·s
viscosity (313.15 K, 101 kPa): 179.8 ± 10 mPa·s and 186.4 ± 5 mPa·s
viscosity (318.15 K, 101 kPa): 134.5 ± 2.9 mPa·s
viscosity (323.15 K, 101 kPa): 89.7 ± 5 mPa·s and 111 ± 3.1 mPa·s and 98.85 ± 1.9 mPa·s

CCC(C)=O + CC(C)=O
viscosity ([1]; 293.15 K, 101 kPa, x1 = 0.2): 0.334 ± 0.004 mPa·s
viscosity ([1]; 293.15 K, 101 kPa, x1 = 0.4): 0.35 ± 0.004 mPa·s
viscosity ([1]; 293.15 K, 101 kPa, x1 = 0.6): 0.365 ± 0.004 mPa·s
viscosity ([1]; 293.15 K, 101 kPa, x1 = 0.8): 0.381 ± 0.004 mPa·s
viscosity ([1]; 313.15 K, 101 kPa, x1 = 0.2): 0.278 ± 0.003 mPa·s
viscosity ([1]; 313.15 K, 101 kPa, x1 = 0.4): 0.29 ± 0.003 mPa·s
viscosity ([1]; 313.15 K, 101 kPa, x1 = 0.6): 0.302 ± 0.004 mPa·s
viscosity ([1]; 313.15 K, 101 kPa, x1 = 0.8): 0.314 ± 0.004 mPa·s

COCCOC
viscosity (298 K, 101.3 kPa): 0.432 ± 0.004 mPa·s
viscosity (298.15 K, 101 kPa): 0.45 ± 0.048 mPa·s
viscosity (298.15 K, 101.33 kPa): 0.4236 ± 0.025 mPa·s
viscosity (301.15 K, 100 kPa): 0.6 ± 0.1 mPa·s and 0.7 ± 0.1 mPa·s
viscosity (308.15 K, 101 kPa): 0.445 ± 0.048 mPa·s and 0.3812 ± 0.0042 mPa·s
viscosity (308.15 K, 101.33 kPa): 0.3847 ± 0.023 mPa·s
viscosity (313.15 K, 101 kPa): 0.3628 ± 0.004 mPa·s
viscosity (318.15 K, 101 kPa): 0.3444 ± 0.0039 mPa·s
viscosity (318.15 K, 101.33 kPa): 0.3496 ± 0.021 mPa·s
viscosity (323.15 K, 101 kPa): 0.3284 ± 0.0037 mPa·s

C1CCCCC1 + CCCCCCC
viscosity ([1]; 298.15 K, 101 kPa, x1 = 0.3947): 0.588 mPa·s
viscosity ([1]; 298.15 K, 101 kPa, x1 = 0.4171): 0.598 mPa·s
viscosity ([1]; 298.15 K, 101 kPa, x1 = 0.4283): 0.604 mPa·s
viscosity ([1]; 298.15 K, 101 kPa, x1 = 0.4413): 0.612 mPa·s
viscosity ([1]; 298.15 K, 101 kPa, x1 = 0.4536): 0.618 mPa·s
viscosity ([1]; 298.15 K, 101 kPa, x1 = 0.4623): 0.622 mPa·s
viscosity ([1]; 298.15 K, 101 kPa, x1 = 0.469): 0.626 mPa·s
viscosity ([1]; 298.15 K, 101 kPa, x1 = 0.4767): 0.629 mPa·s
viscosity ([1]; 298.15 K, 101 kPa, x1 = 0.4813): 0.631 mPa·s
viscosity ([1]; 298.15 K, 101 kPa, x1 = 0.4869): 0.634 mPa·s
viscosity ([1]; 298.15 K, 101 kPa, x1 = 0.4921): 0.636 mPa·s
viscosity ([1]; 298.15 K, 101 kPa, x1 = 0.4949): 0.638 mPa·s
viscosity ([1]; 298.15 K, 101 kPa, x1 = 0.499): 0.64 mPa·s
viscosity ([1]; 298.15 K, 101 kPa, x1 = 0.5069): 0.644 mPa·s
viscosity ([1]; 298.15 K, 101 kPa, x1 = 0.5154): 0.648 mPa·s
viscosity ([1]; 298.15 K, 101.33 kPa, x1 = 0.1013): 0.406 ± 0.003 mPa·s
viscosity ([1]; 298.15 K, 101.33 kPa, x1 = 0.1036): 0.4183 ± 0.0041 mPa·s
viscosity ([1]; 298.15 K, 101.33 kPa, x1 = 0.2023): 0.4381 ± 0.0042 mPa·s
viscosity ([1]; 298.15 K, 101.33 kPa, x1 = 0.2027): 0.425 ± 0.003 mPa·s
viscosity ([1]; 298.15 K, 101.33 kPa, x1 = 0.2962): 0.46 ± 0.0044 mPa·s
viscosity ([1]; 298.15 K, 101.33 kPa, x1 = 0.304): 0.448 ± 0.004 mPa·s
viscosity ([1]; 298.15 K, 101.33 kPa, x1 = 0.3888): 0.484 ± 0.0045 mPa·s
viscosity ([1]; 298.15 K, 101.33 kPa, x1 = 0.4037): 0.475 ± 0.004 mPa·s
viscosity ([1]; 298.15 K, 101.33 kPa, x1 = 0.4752): 0.512 ± 0.0048 mPa·s
viscosity ([1]; 298.15 K, 101.33 kPa, x1 = 0.4998): 0.505 ± 0.004 mPa·s
viscosity ([1]; 298.15 K, 101.33 kPa, x1 = 0.5556): 0.5415 ± 0.005 mPa·s
viscosity ([1]; 298.15 K, 101.33 kPa, x1 = 0.6018): 0.546 ± 0.004 mPa·s
viscosity ([1]; 298.15 K, 101.33 kPa, x1 = 0.6389): 0.5789 ± 0.0052 mPa·s
viscosity ([1]; 298.15 K, 101.33 kPa, x1 = 0.6985): 0.594 ± 0.004 mPa·s
viscosity ([1]; 298.15 K, 101.33 kPa, x1 = 0.7049): 0.6136 ± 0.0055 mPa·s
viscosity ([1]; 298.15 K, 101.33 kPa, x1 = 0.7751): 0.6582 ± 0.0058 mPa·s
viscosity ([1]; 298.15 K, 101.33 kPa, x1 = 0.8024): 0.661 ± 0.005 mPa·s
viscosity ([1]; 298.15 K, 101.33 kPa, x1 = 0.8468): 0.7195 ± 0.0063 mPa·s
viscosity ([1]; 298.15 K, 101.33 kPa, x1 = 0.9002): 0.751 ± 0.005 mPa·s
viscosity ([1]; 298.15 K, 101.33 kPa, x1 = 0.9096): 0.7778 ± 0.0067 mPa·s
viscosity ([1]; 298.15 K, 101.33 kPa, x1 = 0.9735): 0.8588 ± 0.0073 mPa·s
viscosity ([1]; 298.15 K, 101.33 kPa, x2 = 0.1008): 0.776 ± 0.02 mPa·s
viscosity ([1]; 298.15 K, 101.33 kPa, x2 = 0.2001): 0.68 ± 0.018 mPa·s
viscosity ([1]; 298.15 K, 101.33 kPa, x2 = 0.2493): 0.641 ± 0.017 mPa·s
viscosity ([1]; 298.15 K, 101.33 kPa, x2 = 0.3511): 0.578 ± 0.016 mPa·s
viscosity ([1]; 298.15 K, 101.33 kPa, x2 = 0.4012): 0.556 ± 0.015 mPa·s
viscosity ([1]; 298.15 K, 101.33 kPa, x2 = 0.4993): 0.52 ± 0.014 mPa·s
viscosity ([1]; 298.15 K, 101.33 kPa, x2 = 0.5726): 0.483 ± 0.014 mPa·s
viscosity ([1]; 298.15 K, 101.33 kPa, x2 = 0.6007): 0.479 ± 0.014 mPa·s
viscosity ([1]; 298.15 K, 101.33 kPa, x2 = 0.7471): 0.447 ± 0.013 mPa·s
viscosity ([1]; 298.15 K, 101.33 kPa, x2 = 0.8984): 0.409 ± 0.012 mPa·s
viscosity ([1]; 303.15 K, 101 kPa, x1 = 0.0998): 0.3894 ± 0.0033 mPa·s
viscosity ([1]; 303.15 K, 101 kPa, x1 = 0.2012): 0.4064 ± 0.0034 mPa·s
viscosity ([1]; 303.15 K, 101 kPa, x1 = 0.298): 0.4275 ± 0.0035 mPa·s
viscosity ([1]; 303.15 K, 101 kPa, x1 = 0.3986): 0.454 ± 0.0036 mPa·s
viscosity ([1]; 303.15 K, 101 kPa, x1 = 0.5009): 0.4857 ± 0.0037 mPa·s
viscosity ([1]; 303.15 K, 101 kPa, x1 = 0.5994): 0.524 ± 0.0039 mPa·s
viscosity ([1]; 303.15 K, 101 kPa, x1 = 0.7025): 0.5716 ± 0.0041 mPa·s
viscosity ([1]; 303.15 K, 101 kPa, x1 = 0.7975): 0.6321 ± 0.0043 mPa·s
viscosity ([1]; 303.15 K, 101 kPa, x1 = 0.9009): 0.7191 ± 0.0047 mPa·s
viscosity ([1]; 303.15 K, 101.33 kPa, x1 = 0.1013): 0.386 ± 0.003 mPa·s
viscosity ([1]; 303.15 K, 101.33 kPa, x1 = 0.2027): 0.402 ± 0.003 mPa·s
viscosity ([1]; 303.15 K, 101.33 kPa, x1 = 0.304): 0.422 ± 0.003 mPa·s
viscosity ([1]; 303.15 K, 101.33 kPa, x1 = 0.4037): 0.447 ± 0.004 mPa·s
viscosity ([1]; 303.15 K, 101.33 kPa, x1 = 0.4998): 0.477 ± 0.004 mPa·s
viscosity ([1]; 303.15 K, 101.33 kPa, x1 = 0.6018): 0.512 ± 0.004 mPa·s
viscosity ([1]; 303.15 K, 101.33 kPa, x1 = 0.6985): 0.556 ± 0.004 mPa·s
viscosity ([1]; 303.15 K, 101.33 kPa, x1 = 0.8024): 0.619 ± 0.004 mPa·s
viscosity ([1]; 303.15 K, 101.33 kPa, x1 = 0.9002): 0.694 ± 0.005 mPa·s
viscosity ([1]; 308.15 K, 101.33 kPa, x1 = 0.1013): 0.365 ± 0.003 mPa·s
viscosity ([1]; 308.15 K, 101.33 kPa, x1 = 0.2027): 0.379 ± 0.003 mPa·s
viscosity ([1]; 308.15 K, 101.33 kPa, x1 = 0.304): 0.399 ± 0.003 mPa·s
viscosity ([1]; 308.15 K, 101.33 kPa, x1 = 0.4037): 0.422 ± 0.003 mPa·s
viscosity ([1]; 308.15 K, 101.33 kPa, x1 = 0.4998): 0.448 ± 0.004 mPa·s
viscosity ([1]; 308.15 K, 101.33 kPa, x1 = 0.6018): 0.481 ± 0.004 mPa·s
viscosity ([1]; 308.15 K, 101.33 kPa, x1 = 0.6985): 0.52 ± 0.004 mPa·s
viscosity ([1]; 308.15 K, 101.33 kPa, x1 = 0.8024): 0.577 ± 0.004 mPa·s
viscosity ([1]; 308.15 K, 101.33 kPa, x1 = 0.9002): 0.643 ± 0.005 mPa·s
